Columns and labels:
[1] = target: FALDH (K463X) (Homo sapiens, UniProt P51648); experiment: fluorometric NADH formation, Michaelis-Menten fit; assay type: biochemical; settings: 1 mM NAD, 25 mM sodium pyrophosphate pH 8.0, 0.1% Triton X-100, 37 °C
[2] = target: FALDH Q445X (without gatekeeper helix) (Homo sapiens, UniProt P51648); experiment: fluorometric NADH formation, Michaelis-Menten fit; assay type: biochemical; settings: 1 mM NAD, 25 mM sodium pyrophosphate pH 8.0, 0.1% Triton X-100, 37 °C
Sequence of FALDH Q445X (without gatekeeper helix) (P51648 1-444): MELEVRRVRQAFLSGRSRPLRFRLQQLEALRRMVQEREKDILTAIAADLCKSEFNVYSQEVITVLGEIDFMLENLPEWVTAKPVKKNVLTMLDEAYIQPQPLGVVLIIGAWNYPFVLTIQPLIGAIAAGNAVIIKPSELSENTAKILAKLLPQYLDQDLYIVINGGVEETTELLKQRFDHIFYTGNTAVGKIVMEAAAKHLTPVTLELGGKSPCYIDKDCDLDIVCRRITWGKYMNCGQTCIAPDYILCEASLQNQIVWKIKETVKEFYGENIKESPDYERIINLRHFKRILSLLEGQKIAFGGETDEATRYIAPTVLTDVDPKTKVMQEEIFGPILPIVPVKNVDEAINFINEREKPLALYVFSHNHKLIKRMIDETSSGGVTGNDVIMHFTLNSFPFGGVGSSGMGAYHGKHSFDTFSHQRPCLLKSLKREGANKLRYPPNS

Sequence of FALDH (K463X) (P51648 1-462): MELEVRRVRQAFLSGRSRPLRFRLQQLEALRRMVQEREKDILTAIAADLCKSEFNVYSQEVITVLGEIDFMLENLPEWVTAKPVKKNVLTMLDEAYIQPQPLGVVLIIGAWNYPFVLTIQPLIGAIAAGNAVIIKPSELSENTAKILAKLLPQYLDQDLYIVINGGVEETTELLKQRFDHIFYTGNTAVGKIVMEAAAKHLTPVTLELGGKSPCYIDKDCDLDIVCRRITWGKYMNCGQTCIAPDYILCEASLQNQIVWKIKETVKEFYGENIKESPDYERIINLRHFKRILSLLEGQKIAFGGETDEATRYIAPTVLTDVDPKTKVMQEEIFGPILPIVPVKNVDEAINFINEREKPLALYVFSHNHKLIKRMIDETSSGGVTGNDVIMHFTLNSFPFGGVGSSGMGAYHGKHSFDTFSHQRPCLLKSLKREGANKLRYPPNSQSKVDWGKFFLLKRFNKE

Compound | Vmax/KM [1] | Vmax/KM [2]
CCCCCCCCCCCCCCCC=O [hexadecanal] | metabolize octanal, dodecanal and hexadecanal | –
CCCCCCCCCCCC=O [dodecanal] | metabolize octanal, dodecanal and hexadecanal | longer fatty aldehydes docecanal (C12) and hexadecanal (C16) were used as substrates
